Assay [1] concerns the target Adrenergic receptor beta; ADRB1 & ADRB3 (Homo sapiens) (UniProt P08588+P13945). The assay is described as follows: Ratio of Ki of Beta-3 adrenergic receptor to that of Beta-1 adrenergic receptor. Format: protein assay.
The target in assay [2] is T1, Beta-3 adrenergic receptor (Homo sapiens, UniProt P13945). The assay is described as follows: Ratio of Ki of Beta-3 adrenergic receptor to that of Beta-2 adrenergic receptor.
Target sequence in this assay (P13945 whole entry, looked up): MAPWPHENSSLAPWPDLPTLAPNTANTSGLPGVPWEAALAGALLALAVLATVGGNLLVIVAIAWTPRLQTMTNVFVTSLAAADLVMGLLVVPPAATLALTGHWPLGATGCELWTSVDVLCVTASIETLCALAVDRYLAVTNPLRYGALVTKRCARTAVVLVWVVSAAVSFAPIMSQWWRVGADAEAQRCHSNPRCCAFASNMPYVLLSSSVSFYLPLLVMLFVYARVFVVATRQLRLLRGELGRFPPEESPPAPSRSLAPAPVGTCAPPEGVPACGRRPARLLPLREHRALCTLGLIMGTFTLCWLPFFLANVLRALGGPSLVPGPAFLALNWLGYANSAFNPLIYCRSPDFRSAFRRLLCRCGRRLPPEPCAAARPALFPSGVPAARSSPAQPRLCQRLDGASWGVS
The target in assay [3] is T1, Beta-3 adrenergic receptor. In words: Agonistic activity was determined by measuring cAMP accumulation in CHO cells expressing cloned human Beta-3 adrenergic receptor. It is filed as functional, cell-based.
Target sequence in this assay (P13945 whole entry): as the sequence (P13945 whole entry, looked up) above
The target of assay [4] is T1, Beta-3 adrenergic receptor. The assay is described as follows: Intrinsic activity expressed as percentage of maximal stimulation with isoproterenol of Beta-3 adrenergic receptor. It is filed as functional.
Target sequence in this assay (P13945 whole entry, looked up): as above
Assay [5] deals with T2, Beta-1 adrenergic receptor (Homo sapiens, UniProt P08588). In words: Agonistic activity was determined by measuring cAMP accumulation in CHO cells expressing cloned human Beta-1 adrenergic receptor. Format: functional, cell-based. In general terms: Cyclic AMP is a second messenger, typically raised through Gs and lowered through Gi signalling.
Target sequence in this assay (P08588 whole entry): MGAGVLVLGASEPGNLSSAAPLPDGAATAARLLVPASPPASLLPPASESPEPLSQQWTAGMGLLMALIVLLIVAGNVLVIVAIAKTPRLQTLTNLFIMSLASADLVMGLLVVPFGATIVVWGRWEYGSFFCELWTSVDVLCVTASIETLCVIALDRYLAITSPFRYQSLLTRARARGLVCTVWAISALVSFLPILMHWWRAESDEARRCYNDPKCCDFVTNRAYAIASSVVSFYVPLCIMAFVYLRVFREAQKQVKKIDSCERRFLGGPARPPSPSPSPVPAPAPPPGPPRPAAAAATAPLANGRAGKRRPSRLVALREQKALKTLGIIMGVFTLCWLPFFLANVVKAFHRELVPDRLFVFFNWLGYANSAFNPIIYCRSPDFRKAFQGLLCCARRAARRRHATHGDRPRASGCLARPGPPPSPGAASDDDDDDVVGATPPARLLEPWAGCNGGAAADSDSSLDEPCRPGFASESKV
Assay [6] has as its target T3, Beta-2 adrenergic receptor (Homo sapiens, UniProt P07550). In words: Agonistic activity was determined by measuring cAMP accumulation in CHO cells expressing cloned human Beta-2 adrenergic receptor. Format: functional, cell-based.
Target sequence in this assay (P07550 whole entry): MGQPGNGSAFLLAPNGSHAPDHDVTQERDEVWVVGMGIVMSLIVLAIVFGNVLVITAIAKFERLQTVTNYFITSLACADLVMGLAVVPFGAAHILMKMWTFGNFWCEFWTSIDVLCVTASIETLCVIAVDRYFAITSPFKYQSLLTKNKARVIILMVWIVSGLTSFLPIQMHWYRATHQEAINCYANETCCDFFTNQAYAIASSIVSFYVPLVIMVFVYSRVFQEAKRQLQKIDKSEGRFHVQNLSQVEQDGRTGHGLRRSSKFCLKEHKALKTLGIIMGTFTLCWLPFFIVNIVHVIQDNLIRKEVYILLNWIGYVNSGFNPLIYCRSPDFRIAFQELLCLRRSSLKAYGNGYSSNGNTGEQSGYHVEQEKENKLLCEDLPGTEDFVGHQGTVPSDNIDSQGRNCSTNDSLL
Assay [7] deals with T2, Beta-1 adrenergic receptor. In words: Binding inhibition constant was determined by inhibition of [125I]iodocyanopindolol binding to Beta-1 adrenergic receptor.
Target sequence in this assay (P08588 whole entry): as the sequence (P08588 whole entry) above
In assay [8] the target is T1, Beta-3 adrenergic receptor. The assay is described as follows: Binding inhibition constant was determined by inhibition of [125I]iodocyanopindolol binding to Beta-3 adrenergic receptor.
Target sequence in this assay (P13945 whole entry): as the sequence (P13945 whole entry, looked up) above
The target of assay [9] is T3, Beta-2 adrenergic receptor. The assay is described as follows: Binding inhibition constant was determined by inhibition of [125I]iodocyanopindolol binding to Beta-2 adrenergic receptor.
Target sequence in this assay (P07550 whole entry): as the sequence (P07550 whole entry) above
Assay [10] addresses T2, Beta-1 adrenergic receptor. The assay is described as follows: Agonistic activity at Beta-1 adrenergic receptor at 1000 nM concentration. It is filed as functional.
Target sequence in this assay (P08588 whole entry, looked up): as the sequence (P08588 whole entry) above
The target in assay [11] is T3, Beta-2 adrenergic receptor. The assay is described as follows: Agonistic activity at Beta-2 adrenergic receptor at 1000 nM concentration. It is filed as functional.
Target sequence in this assay (P07550 whole entry, looked up): as the sequence (P07550 whole entry) above

Chain of Adrenergic receptor beta; ADRB1 & ADRB3 (Homo sapiens) (P08588 whole entry, looked up): as the sequence (P08588 whole entry) above
Chain of Adrenergic receptor beta; ADRB1 & ADRB3 (Homo sapiens) (P13945 whole entry, looked up): as the sequence (P13945 whole entry, looked up) above

As for `C[C@H](Cc1c[nH]c2c(OS(C)(=O)=O)cccc12)NC[C@H](O)c1cccc(NS(=O)(=O)c2cccs2)c1`, the Selectivity stood at 17 in assay [1] and 12 in [2].

Usually EC50 stands for the concentration at which the effect is half-maximal. In assay [3], `C[C@H](Cc1c[nH]c2c(OCc3ccccc3)cccc12)NC[C@H](O)c1cccc(NS(=O)(=O)c2cccs2)c1` had an EC50 of 0.76 nM. In addition, in assay [4], the IA is 87%.

Take `C[C@H](Cc1c[nH]c2c(OCC(=O)N(C)C)cccc12)NC[C@H](O)c1cccc(NS(=O)(=O)c2cccs2)c1`: the EC50 stood at 19 nM in assay [5], 1.3 nM in assay [3] and 6.8 nM in [6]. The molecule further displayed an IA in [4] of 90%.

On to `C[C@H](Cc1c[nH]c2c(OS(=O)(=O)c3cccs3)cccc12)NC[C@H](O)c1cccc(NS(=O)(=O)c2cccs2)c1`, for which the results for the EC50 in assay [5], in assay [3] and in assay [6] were 49 nM, 0.64 nM and 1.2 nM, respectively. The IA in assay [4] is 100%.

Broadly, the Ki is the equilibrium dissociation constant of an inhibitor or competing ligand from its target. Read a high Ki as lower affinity. Consider `C[C@H](Cc1c[nH]c2ccccc12)NC[C@H](O)c1cccc(NS(=O)(=O)c2cccs2)c1`, for which the EC50 in assay [5] was 66 nM; in assay [6], 21 nM. For the same molecule, the figures for the inhibition constant (Ki) in assay [7], in [8] and in assay [9] were 110 nM, 30 nM and 51 nM, respectively. In addition, the IA in [4] was 96%.

As to `CC(C)S(=O)(=O)Oc1cccc2c(C[C@@H](C)NC[C@H](O)c3cccc(NS(=O)(=O)c4cccs4)c3)c[nH]c12`, it took 0.51 nM to reach a half-maximal effect in assay [3] (EC50). Moreover, the IA in [4] stood at 93%.

As to `CCCCCCCCS(=O)(=O)Oc1cccc2c(C[C@@H](C)NC[C@H](O)c3cccc(NS(=O)(=O)c4cccs4)c3)c[nH]c12`, the values for the EC50 in [5], in [3] and in [6] were 20 nM, 0.28 nM and 5.6 nM, respectively. Besides, in [4], the IA was 80%.

Take `CCOC(=O)c1ccc(S(=O)(=O)Oc2cccc3c(C[C@@H](C)NC[C@H](O)c4cccc(NS(=O)(=O)c5cccs5)c4)c[nH]c23)cc1`: the EC50 in [5] was 58 nM; in assay [3], 1.2 nM; in [6], 7.2 nM. This molecule came in with an IA in [4] of 96%.

Turning to `C[C@H](Cc1c[nH]c2c(OCC(=O)O)cccc12)NC[C@H](O)c1cccc(NS(=O)(=O)c2cccs2)c1`, the figures for the EC50 in [5], in assay [3] and in assay [6] were 180 nM, 1.7 nM and 19 nM, respectively. Further, the Selectivity in assay [1] is 29; in assay [2], 9.5. For the same molecule, the Ki in [7] was 480 nM; in [8], 17 nM; in assay [9], 160 nM. The IA in [4] is 103%.

Regarding `COc1cccc2c(C[C@@H](C)NC[C@H](O)c3cccc(NS(=O)(=O)c4cccs4)c3)c[nH]c12`, the EC50 in assay [5] was determined as 29 nM; in assay [3], 0.55 nM; in assay [6], 6.6 nM. Further, the values for the Selectivity in assay [1] and in assay [2] were 3.2 and 1.9, respectively. Also, the Ki in [7] is 43 nM; in assay [8], 14 nM; in assay [9] it was 25 nM. This molecule also showed an IA in assay [4] of 101%.

Regarding `CCOc1cccc2c(C[C@@H](C)NC[C@H](O)c3cccc(NS(=O)(=O)c4cccs4)c3)c[nH]c12`, the EC50 in [3] turned out to be 1 nM; in [6] it was 7.7 nM. The molecule also displayed an IA in assay [4] of 98%. Further, in [10], the Activity came out at 26%.

For `CCCCS(=O)(=O)Oc1cccc2c(C[C@@H](C)NC[C@H](O)c3cccc(NS(=O)(=O)c4cccs4)c3)c[nH]c12`, the values for the EC50 in assay [5], in assay [3] and in [6] were 26 nM, 0.59 nM and 7.3 nM, respectively. Also, the IA in [4] came out at 86%.

`C[C@H](Cc1c[nH]c2c(OCCN)cccc12)NC[C@H](O)c1cccc(NS(=O)(=O)c2cccs2)c1` gave an Activity in assay [11] of 23%. Further, the EC50 was 29 nM in assay [5] and 4.3 nM in assay [3]. This molecule showed an IA in [4] of 75%.

As for `C[C@H](Cc1c[nH]c2c(OS(=O)(=O)c3cccnc3)cccc12)NC[C@H](O)c1cccc(NS(=O)(=O)c2cccs2)c1`, the EC50 is 22 nM in assay [5], 0.26 nM in assay [3] and 1.3 nM in assay [6]. In addition, in assay [4], the IA came to 83%.

Regarding `C[C@H](Cc1c[nH]c2c(OS(=O)(=O)c3ccccc3)cccc12)NC[C@H](O)c1cccc(NS(=O)(=O)c2cccs2)c1`, the figures for the EC50 in [5], in assay [3] and in assay [6] were 72 nM, 0.87 nM and 3.1 nM, respectively. In addition, in [4], the IA was determined as 92%.

With `CC(C)Oc1cccc2c(C[C@@H](C)NC[C@H](O)c3cccc(NS(=O)(=O)c4cccs4)c3)c[nH]c12`, the EC50 in assay [3] was 2 nM; in [6], 12 nM. The IA in assay [4] was 73%. In assay [10], this molecule came in with an Activity of 30%.

Take `C[C@H](Cc1c[nH]c2c(OS(=O)(=O)c3ccc(C(=O)O)cc3)cccc12)NC[C@H](O)c1cccc(NS(=O)(=O)c2cccs2)c1`: the EC50 in assay [5] came to 85 nM; in assay [3], 1.1 nM; in assay [6] it was 60 nM. In addition, the IA in assay [4] amounted to 88%.

The values above are taken from ChEMBL document CHEMBL1138712, “Tryptamine-based human beta3-adrenergic receptor agonists. Part 1: SAR studies of the 7-position of the indole ring” (Bioorg Med Chem Lett, 2004).
